SMILES strings stand for the structures. Counter-ions that a name gives are not always drawn.

By melting point is commonly meant the temperature, or range, at which the solid turns liquid. `CCOP(=O)(Nc1cccc([C@@H](CN2CCCC2)N(C)C(=O)Cc2ccc(Cl)c(Cl)c2)c1)OCC` (as salt: hydrochloride) [Example 3g, 2-(3,4-Dichlorophenyl)-N-methyl-N-[(1S)-1-[3-(diethyl Phosphoryl)amino]phenyl)-2-(1-pyrrolidinyl)ethyl]acetamide hydrochloride] yielded a melting point of 140 to 142 °C.

As for `CN(C(=O)Cc1ccc(Cl)c(Cl)c1)[C@H](CN1CCCC1)c1cccc(NC(=O)CCC(=O)NCC(=O)O)c1` (as salt: hydrochloride) [Example 3j, 2-(3,4-Dichlorophenyl)-N-methyl-N-{(1R,S)-1-[3-(3-(((hydroxycarbonyl)-methyl)aminocarbonyl)propionamido)phenyl]-2-(1-pyrrolidinyl)ethyl}acetamide hydrochloride], the melting point was 158 °C (dec.). The compound `COC(=O)CNC(=O)c1ccccc1CC(=O)N(C)[C@H](CN1CCCC1)c1ccccc1` (as salt: hydrochloride) [Example 3mm, Methyl N-[2-(2-pheny)-N-methyl-N-{[1S]-1-phenyl-2-(1-pyrrolidinyl)ethyl}acetamido]2-oxo-glycinate hydrochloride] returned a melting point of 204 to 206 °C.

On to `CN(C(=O)Cc1ccccc1NS(C)(=O)=O)[C@H](CN1CCCC1)c1cccc(NS(C)(=O)=O)c1` (as salt: hydrochloride) [Example 3pp, 2-(2-Methanesulfonamidophenyl)-N-methyl-N-[(1S)-1-(3-methanesulfon-amidophenyl)-2-(1-pyrrolidinyl)ethyl]acetamide Hydrochloride], for which the melting point was 160 °C (dec.). Compound `COc1cc(CC(=O)N(C)[C@H](CN2CCCC2)c2ccccc2)c(S(=O)(=O)N(C)Cc2ccccc2)cc1OC` (as salt: hydrochloride) [Example 3xx, 2-(2-N-Benzyl-2-N-methylsulfamoyl-3,4-dimethoxyphenyl)-N-methyl-N-[(1S)-1-phenyl-2-(1-pyrrolidinyl)ethyl]acetamide hydrochloride] returned a melting point of 188 to 190 °C. With `CCOC(=O)/C=C/C(=O)Nc1cc(Cl)c(Cl)cc1CC(=O)N(C)[C@H](CN1CCCC1)c1ccccc1` (as salt: hydrochloride) [Example 3y, (E) Ethyl 4-[2-(2-amino-4,5-dichlorophenyl)-N-methyl-N-[(1S)-1-phenyl)-2-[1-pyrrolidinyl]ethyl]acetamido]4-oxo-2-butenoate hydrochloride], the melting point is 165 to 167 °C (dec.). As for `COc1ccc(CC(=O)N(C)[C@H](CN2CCCC2)c2ccccc2)cc1NS(C)(=O)=O` (as salt: methane sulfonate) [Example 122, 2-(3-N-Methylsulfonamido-3-amino-4-methoxyphenyl)-N-methyl-N-[(1S)-1-phenyl-2-(1-pyrrolidinyl)ethyl]acetamide methane sulfonate], the melting point lay in the range of 149 to 151 °C. Regarding `CN(C(=O)Cc1ccc(O)c(N(S(C)(=O)=O)S(C)(=O)=O)c1)[C@H](CN1CCCC1)c1ccccc1` (as salt: salt) [Example 130, 2-(3-N-Bis-methylsulfonamido-3-amino-4-hydroxyphenyl)-N-methyl-N-[(1S)-1-phenyl-2-(1-pyrrolidinyl)ethyl]acetamide], the melting point was 197 to 199 °C. `CN(C(=O)Cc1cc2c(cc1S(=O)(=O)N(C)Cc1ccccc1)OCO2)[C@H](CN1CCCC1)c1ccccc1` (as salt: salt) [Example 131, 2-[2-(N-Benzyl-N-methylsulfamoyl)-4,5-methylenedioxyphenyl]-N-methyl-N-[(1S)-1-phenyl-2-[(1-pyrrolidinyl)ethyl]]acetamide] yielded a melting point of 236 to 238 °C. With `COc1cc(CC(=O)N(C)[C@H](CN2CC[C@H](O)C2)c2ccccc2)c(S(=O)(=O)N2CCCC2)cc1OC` (as salt: salt) [Example 135, 2-[2-(N-Pyrrolidinesulfamoyl)-4,5-dimethoxyphenyl]-N-methyl-N-[(1S)-1-phenyl-2-[1-(3S)-(3-hydroxypyrrolidinyl)ethyl]]acetamide], the melting point was > 120 °C (dec.). Next, `CC(C)C(=O)Nc1cccc([C@@H](CN2CCCC2)N(C)C(=O)Cc2ccccc2NC(=O)C(C)C)c1` (as salt: sulfonic acid salt) [Example 3qq, 2-(2-Iso-butyramidophenyl)-N-methyl-N-[(1S)-1-(3-isobutyramido-phenyl)-2-(1-pyrrolidinyl)ethyl]acetamide Methanesulfonic acid salt]: 143 to 145 °C. `CN(C(=O)Cc1cc(Cl)c(Cl)cc1NC(=O)/C=C\C(=O)O)[C@H]1CCCC[C@@H]1N1CCCC1` (racemic): the melting point was 246 to 248 °C (dec.). The value for `CNS(=O)(=O)c1cccc(CC(=O)N(C)[C@@H]2CCCC[C@H]2N2CCCC2)c1OC.Cl` (racemic) was 168 to 170 °C; that for `CN(C(=O)Cc1ccccc1NS(C)(=O)=O)[C@@H]1CCCC[C@H]1N1CCCC1.Cl` (racemic) was 229 to 231 °C; that for `CN(C(=O)Cc1ccc(S(C)(=O)=O)cc1)[C@@H]1CCCC[C@H]1N1CCCC1.Cl` (racemic) was 152 to 154 °C (dec.). For the compound `COc1cc2c(cc1S(=O)(=O)N(C)Cc1ccccc1)[C@@H](N(C)C(=O)Cc1ccc(Cl)c(Cl)c1)[C@H](N1CCCC1)CC2` (racemic) (as salt: HCl), the melting point was 150 °C (dec.). With `CN(C(=O)Cc1ccc(Cl)c(Cl)c1)[C@@H]1c2cc(S(=O)(=O)N(C)Cc3ccccc3)ccc2CC[C@H]1N1CCCC1` (racemic) (as salt: HCl), the melting point was 251 to 254 °C.

Compound `CN(C(=O)Cc1cc(Cl)c(Cl)cc1[N+](=O)[O-])[C@@H]1c2ccccc2C[C@H]1N1CCCC1` (racemic) (as salt: HCl) yielded a melting point of 284 to 287 °C. In the case of `CN(C(=O)Cc1ccc(C(F)(F)F)cc1[N+](=O)[O-])[C@@H]1c2ccccc2C[C@H]1N1CCCC1` (racemic) (as salt: HCl), the melting point lay in the range of 249 to 250 °C. With `CN(C(=O)C(c1ccccc1)c1ccccc1)[C@@H]1c2ccccc2C[C@H]1N1CCCC1` (racemic) (as salt: HCl), the melting point is > 300 °C.

In turn, `CN(C(=O)Cc1ccc(S(C)(=O)=O)cc1)[C@@H]1c2ccccc2C[C@H]1N1CCCC1` (racemic) (as salt: HCl) came in with a melting point of 246 to 248 °C. Take `CN(C(=O)C(c1ccccc1)c1ccccc1)C1CCCCC1N1CCCC1` (racemic) (as salt: HCl) [Example 5s, (±)-trans-N-Methyl-N-[2-(1-pyrrolidinyl)cyclohexyl]2,2-dphenylacetamide Hydrochloride]: the melting point is 295 to 297 °C (dec.).

With `CS(=O)(=O)c1ccc(CC(=O)N2CCN(S(C)(=O)=O)CC2CN2CCCC2)cc1` (racemic) (as salt: hydrochloride) [(R,S-8b), (R,S)-4-Methanesulfonyl-1-[(4-methylsulfonylphenyl)acetyl]-2-[(1-pyrrolidinyl)-methyl]piperazine hydrochloride], the melting point lay within 185 to 188 °C. With `CS(=O)(=O)N1CCN(C(=O)Cc2c[nH]c3ccccc23)C(CN2CCCC2)C1` (racemic) (as salt: hydrochloride) [(R,S-8e), (R,S)-4-Methanesulfonyl-1-[(3-indolylacetyl-2-[(1-pyrrolidinyl)-methyl]piperazine hydrochloride], the melting point fell in the range of 219 to 221 °C. Compound `COC(=O)N1CCN(C(=O)Cc2ccc(S(C)(=O)=O)cc2)C(CN2CCCC2)C1` (racemic) (as salt: hydrochloride) [(R,S-9a), (R,S)-Methyl 4-[(4-methylsulfonylphenyl)acetyl]-3-[(1-pyrrolidinyl)-methyl]-1-piperazinecarboxylate hydrochloride] yielded a melting point of 225 °C.

On to `COC(=O)N1CCN(C(=O)Cc2ccc(C(F)(F)F)cc2)C(CN2CCCC2)C1` (racemic) (as salt: hydrochloride) [(R,S-9b), (R,S)-Methyl 4-[(4-trifluoromethylphenyl)acetyl]-3-[(1-pyrrolidinyl)-methyl]-1-piperazinecarboxylate hydrochloride], for which the melting point is 210 °C.

Regarding `COC(=O)N1CCN(C(=O)Cc2c[nH]c3ccccc23)C(CN2CCCC2)C1` (racemic) (as salt: hydrochloride) [(R,S-9c), (R,S)-Methyl 4-[(3-indolyl)acetyl]-3-[(1-pyrrolidinyl)-methyl]-1-piperazine-carboxylate hydrochloride], the melting point was 143 °C. Next, `COC(=O)N1CCN(C(=O)Cc2ccccc2[N+](=O)[O-])C(CN2CCCC2)C1` (racemic) (as salt: hydrochloride) [(R,S-9d), (R,S)-Methyl 4-[(2-nitrophenyl)acetyl]-3-[(1-Pyrrolidinyl)-methyl]-1-piperazine-carboxylate hydrochloride]: 228 °C; `COC(=O)N1CCN(C(=O)Cc2ccccc2OC)C(CN2CCCC2)C1` (racemic) (as salt: hydrochloride) [(R,S-9e)]: 120 °C. Regarding `COC(=O)N1CCN(C(=O)Cc2ccccc2N)C(CN2CCCC2)C1` (racemic) (as salt: hydrochloride) [(R,S-9f), (R,S)-Methyl 4-[(2-aminophenyl)acetyl]-3-[(1-pyrrolidinyl)-methyl]-1-piperazine-carboxylate dihydrochloride], the melting point was 195 °C (dec.). As to `CC(=O)N1CCN(C(=O)Cc2ccc(S(C)(=O)=O)cc2)C(CN2CCCC2)C1` (racemic) (as salt: hydrochloride) [(R,S-10a)], the melting point was 145 to 147 °C. The compound `CC(=O)N1CCN(C(=O)Cc2ccc(C(F)(F)F)cc2)C(CN2CCCC2)C1` (racemic) (as salt: hydrochloride) [(R,S-10b)] came in with a melting point of 110 °C.

The compound `CC(=O)N1CCN(C(=O)Cc2cccc([N+](=O)[O-])c2)C(CN2CCCC2)C1` (racemic) (as salt: hydrochloride) [(R,S-10d), (R,S)-4-Acetyl-1-[(3-nitrophenyl)acetyl]-3-[(1-pyrrolidinyl)-methyl]piperazine-carboxylate hydrochloride] came in with a melting point of 143 to 145 °C. As for `CC(=O)N1CCN(C(=O)Cc2ccccc2[N+](=O)[O-])C(CN2CCCC2)C1` (racemic) (as salt: hydrochloride) [(R,S-10e), (R,S)-4-Acetyl-1-[(2-nitrophenyl)acetyl]-3-[(1-pyrrolidinyl)-methyl]piperazine-carboxylate hydrochloride], the melting point was 180 °C (dec.).

The values above are taken from US20050020576A1, “Kappa agonist compounds and pharmaceutical formulations thereof” (priority 1996, published 2005).
